Data set [1] has as its target T1, WT BTK (Homo sapiens, UniProt Q06187). Kind of data set: In vitro dialysis assay (irreversibility assay). The format is biochemical. Conditions: from recovery after 24 h dialysis. Here is the method: The compound-enzyme complex was dialyzed against the same buffer supplemented with 40 mM ATP for 24 hr. Cumulative dialysis factor>160,000×. After dialysis, the BTK activity was measured in the presence […] and 1 mM substrate peptide and compared to that in non-dialyzed samples. Assay buffer: 100 mM HEPES, pH7.5; 0.1% BSA, 0.01% Triton-X 100; 5 mM MgCl2; 1 mM DTT.

Data set [2] addresses T1, WT BTK. The experiment in a line: Caliper-based biochemical enzymatic assay (IC50), WT BTK. Conditions: 0.5 nM enzyme, ATP 16 μM, room temperature 3 h; read-out: WT BTK IV50 (nM) (irreversible inhibition). On the procedure:
(§1) The reaction was then terminated with EDTA, final concentration 20 mM and the phosphorylated reaction product was quantified on a Caliper Desktop Profiler (Caliper LabChip 3000).

The target in data set [3] is T2, C481S BTK (Homo sapiens, UniProt Q06187, C481S). Kind of data set: Caliper-based biochemical enzymatic assay (IC50), C481S BTK. Conditions: for IC50: 0.5 nM enzyme, ATP 16 μM, room temperature 3 h, read-out: C481S BTK IC50 (nM) (reversible inhibition). Here is the method:
as §1

Data set [4] deals with T2, C481S BTK. Kind of data set: Reversibility of binding to the C481S BTK enzyme. Type of data set: biochemical. Conditions: Cysteine residue not available for covalent binding.
In data set [5] the test system is basophil activation, B cell receptor activation, and constitutive p-BTK activity in whole blood lysates. Particulars: read-out: IC50s for basophil activation, B cell receptor activation, and constitutive p-BTK activity; cited from earlier work.
Data set [6] concerns rats. Particulars: treatment for longer than 7 days; cited from earlier work.
The test system of data set [7] is mice. Particulars: even at higher doses; cited from earlier work.
Data set [8] deals with dogs. Conditions: even at higher doses; cited from earlier work.
For data set [9] the following is noted: Phase I clinical trials, formulations containing GDC-0853; cited from earlier work.

These results are taken from patent US12086788B2, “Substituted pyrazines as inhibitors of BTK, and mutants thereof” (Newave Pharmaceutical Inc., priority 2018, dated 2024).

“Also recorded” adds a separate entry of the source.

T2 sequence (Q06187 whole entry C481S): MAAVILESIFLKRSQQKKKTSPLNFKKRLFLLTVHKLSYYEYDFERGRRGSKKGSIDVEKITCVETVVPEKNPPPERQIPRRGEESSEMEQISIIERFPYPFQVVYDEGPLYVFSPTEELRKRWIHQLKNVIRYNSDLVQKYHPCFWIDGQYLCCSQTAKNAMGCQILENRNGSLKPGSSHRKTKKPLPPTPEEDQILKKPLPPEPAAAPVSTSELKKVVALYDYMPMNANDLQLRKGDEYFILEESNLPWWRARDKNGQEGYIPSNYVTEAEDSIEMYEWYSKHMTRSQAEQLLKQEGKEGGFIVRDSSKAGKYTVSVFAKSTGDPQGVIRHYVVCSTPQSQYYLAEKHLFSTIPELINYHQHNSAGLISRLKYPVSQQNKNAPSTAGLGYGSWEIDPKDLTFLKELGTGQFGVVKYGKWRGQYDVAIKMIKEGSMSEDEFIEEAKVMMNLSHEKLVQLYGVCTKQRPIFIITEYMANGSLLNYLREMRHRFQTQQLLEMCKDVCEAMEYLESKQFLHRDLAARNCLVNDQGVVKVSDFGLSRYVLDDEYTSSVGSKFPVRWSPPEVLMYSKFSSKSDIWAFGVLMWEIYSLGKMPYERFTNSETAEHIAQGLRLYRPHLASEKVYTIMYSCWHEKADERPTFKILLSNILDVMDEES
T1 sequence (Q06187 whole entry): as the sequence (Q06187 whole entry C481S) above, with S481C counted along it

For `C=CC(=O)Nc1cc(Nc2nc(-c3ccnc(N4CCn5c(cc6c5CC(C)(C)C6)C4=O)c3CO)cn(C)c2=O)ccc1N1CCN(C)CC1` [Example 2, N-(5-((6-(2-(7,7-dimethyl-1-oxo-1,3,4,6,7,8-hexahydro-2H-cyclopenta[4,5]pyrrolo[1,2-a]pyrazin-2-yl)-3-(hydroxymethyl)pyridin-4-yl)-4-methyl-3-oxo-3,4-dihydropyrazin-2-yl)amino)-2-(4-methylpiperazin-1-yl)phenyl)acrylamide], the “Conclusion (WT BTK)” value in data set [1] was “irreversible inhibitors; also recorded: Irreversible/covalent inhibition”. Further, the IC50 in [2] came out at 0.25 nM. Further, in data set [3], the “fold more potent than ACT-196 in C481S BTK assay” value is recorded as 477, the “fold more potent than Ibrutinib in C481S BTK assay” value was determined as 64 and the IC50 worked out at 1.7 nM. For the same compound, the “mode of binding to C481S BTK” value in [4] is given as “reversibly bind”.

Take `C=CC(=O)Nc1cc(Nc2nc(-c3ccnc(N4CCn5c(cc6c5CC(C)(C)C6)C4=O)c3CO)cn(C)c2=O)ccc1N1CCN(C2COC2)C[C@@H]1C` [Example 3, (S)—N-(5-((6-(2-(7,7-dimethyl-1-oxo-1,3,4,6,7,8-hexahydro-2H-cyclopenta[4,5]pyrrolo[1,2-a]pyrazin-2-yl)-3-(hydroxymethyl)pyridin-4-yl)-4-methyl-3-oxo-3,4-dihydropyrazin-2-yl)amino)-2-(2-methyl-4-(oxetan-3-yl)piperazin-1-yl)phenyl)acrylamide]: the “Conclusion (WT BTK)” value in data set [1] is reported as “irreversible inhibitors; also recorded: Irreversible/covalent inhibition”. Also, the IC50 in [2] and in data set [3] was under 1 nM throughout.

With `C=CC(=O)Nc1cc(Nc2nc(-c3ccnc(N4CCn5c(cc6c5CC(C)(C)C6)C4=O)c3C)cn(C)c2=O)ccc1N1CCN(C2COC2)C[C@@H]1C` [Example 11, (S)—N-(5-((6-(2-(7,7-dimethyl-1-oxo-1,3,4,6,7,8-hexahydro-2H-cyclopenta[4,5]pyrrolo[1,2-a]pyrazin-2-yl)-3-methylpyridin-4-yl)-4-methyl-3-oxo-3,4-dihydropyrazin-2-yl)amino)-2-(2-methyl-4-(oxetan-3-yl)piperazin-1-yl)phenyl)acrylamide], in data set [1], the “Conclusion (WT BTK)” value is recorded as “irreversible inhibitors; also recorded: Irreversible/covalent inhibition”. The IC50 in data set [2] and in [3] was under 1 nM each time.

For the compound `C=CC(=O)Nc1cc(Nc2nc(-c3ccnc(N4CCn5c(cc6c5CC(C)(C)C6)C4=O)c3CO)cn(C)c2=O)ccc1N1CCC(N2CCOCC2)CC1C` (stereo not drawn) [Example 12, N-(5-((6-(2-(7,7-dimethyl-1-oxo-1,3,4,6,7,8-hexahydro-2H-cyclopenta[4,5]pyrrolo[1,2-a]pyrazin-2-yl)-3-(hydroxymethyl)pyridin-4-yl)-4-methyl-3-oxo-3,4-dihydropyrazin-2-yl)amino)-2-(2-methyl-4-morpholinopiperidin-1-yl)phenyl)acrylamide], the “Conclusion (WT BTK)” value in data set [1] is on record as “irreversible inhibitors; also recorded: Irreversible/covalent inhibition”. Moreover, the IC50 in [2] and in [3] was under 1 nM in each case.

For `C[C@H]1CN(C2COC2)CCN1c1ccc(Nc2cc(-c3ccnc(N4CCn5c(cc6c5CC(C)(C)C6)C4=O)c3CO)cn(C)c2=O)nc1` [GDC-0853], in data set [1], the “Conclusion (WT BTK)” value is “Reversible”. The IC50 in [5] is 2 to 9 nM. Further, the pancreatic toxicity result is on record as “pancreatic toxicity” in [6], “does not occur” in data set [7] and “does not occur” in data set [8]. Further, the tolerability result in [9] is reported as “well-tolerated”.
